Assay: xn = mol fraction of the nth substance listed
Conditions: for surface tension liquid-gas: Tensiometer with plate; for viscosity / mass density: 101 kPa, Liquid; for viscosity: Capillary tube (Ostwald / Ubbelohde) method; for mass density: Vibrating tube method

CN1CCNCC1 [N-methylpiperazine] + O
Conditions	mass density [kg/m3]	surface tension liquid-gas [mN/m]	viscosity [mPa·s]
293.15 K, x1 = 0.1	–	47.64	–
293.15 K, x1 = 0.1998	–	43.4	–
293.15 K, x1 = 0.2994	–	38.68	–
293.15 K, x1 = 0.4073	–	35.89	–
293.15 K, x1 = 0.4983	–	34.37	–
293.15 K, x1 = 0.5934	–	33.18	–
293.15 K, x1 = 0.6979	–	32.35	–
293.15 K, x1 = 0.7994	–	31.68	–
293.15 K, x1 = 0.8978	–	31.15	–
293.15 K, x1 = 1	–	30.65	–
298.15 K, x1 = 0.0521	1001.67	–	3.324
298.15 K, x1 = 0.0725	1005.26	–	5.564
298.15 K, x1 = 0.1039	1009.54	–	10.76
298.15 K, x1 = 0.2091	1001.33	–	35.24
298.15 K, x1 = 0.3101	981.31	–	36.42
298.15 K, x1 = 0.4096	962.21	–	23.48
298.15 K, x1 = 0.5109	946.41	–	13.36
298.15 K, x1 = 0.608	933.25	–	7.957
298.15 K, x1 = 0.7065	922.31	–	4.893
298.15 K, x1 = 0.8069	913.72	–	3.383
298.15 K, x1 = 0.8819	906.76	–	2.552
298.15 K, x1 = 1	898.81	–	1.87
303.15 K, x1 = 0.0521	999.31	–	2.752
303.15 K, x1 = 0.0725	1002.36	–	4.48
303.15 K, x1 = 0.1	–	46.73	–
303.15 K, x1 = 0.1039	1005.87	–	8.223
303.15 K, x1 = 0.1998	–	42.1	–
303.15 K, x1 = 0.2091	996.94	–	25.01
303.15 K, x1 = 0.2994	–	38.07	–
303.15 K, x1 = 0.3101	976.94	–	25.74
303.15 K, x1 = 0.4073	–	35.25	–
303.15 K, x1 = 0.4096	957.88	–	17.12
303.15 K, x1 = 0.4983	–	33.82	–
303.15 K, x1 = 0.5109	942.03	–	10.17
303.15 K, x1 = 0.5934	–	32.73	–
303.15 K, x1 = 0.608	928.88	–	6.246
303.15 K, x1 = 0.6979	–	31.78	–
303.15 K, x1 = 0.7065	917.92	–	4.048
303.15 K, x1 = 0.7994	–	31.16	–
303.15 K, x1 = 0.8069	909.33	–	2.835
303.15 K, x1 = 0.8819	902.37	–	2.188
303.15 K, x1 = 0.8978	–	30.7	–
303.15 K, x1 = 1	894.43	30.34	1.618
308.15 K, x1 = 0.1	–	45.72	–
308.15 K, x1 = 0.1998	–	40.74	–
308.15 K, x1 = 0.2994	–	37.57	–
308.15 K, x1 = 0.4073	–	34.71	–
308.15 K, x1 = 0.4983	–	33.32	–
308.15 K, x1 = 0.5934	–	32.06	–
308.15 K, x1 = 0.6979	–	31.25	–
308.15 K, x1 = 0.7994	–	30.8	–
308.15 K, x1 = 0.8978	–	30.2	–
308.15 K, x1 = 1	–	29.86	–
313.15 K, x1 = 0.0521	994.17	–	1.987
313.15 K, x1 = 0.0725	996.21	–	3.048
313.15 K, x1 = 0.1	–	44.4	–
313.15 K, x1 = 0.1039	998.34	–	5.183
313.15 K, x1 = 0.1998	–	39.61	–
313.15 K, x1 = 0.2091	988.01	–	13.66
313.15 K, x1 = 0.2994	–	36.37	–
313.15 K, x1 = 0.3101	968.03	–	13.97
313.15 K, x1 = 0.4073	–	34.03	–
313.15 K, x1 = 0.4096	949.09	–	9.817
313.15 K, x1 = 0.4983	–	32.66	–
313.15 K, x1 = 0.5109	933.18	–	6.25
313.15 K, x1 = 0.5934	–	31.58	–
313.15 K, x1 = 0.608	920.04	–	4.118
313.15 K, x1 = 0.6979	–	30.76	–
313.15 K, x1 = 0.7065	909.07	–	2.846
313.15 K, x1 = 0.7994	–	30.4	–
313.15 K, x1 = 0.8069	900.47	–	2.091
313.15 K, x1 = 0.8819	893.54	–	1.673
313.15 K, x1 = 0.8978	–	29.71	–
313.15 K, x1 = 1	885.62	29.23	1.302
318.15 K, x1 = 0.1	–	43.02	–
318.15 K, x1 = 0.1998	–	38.31	–
318.15 K, x1 = 0.2994	–	35.73	–
318.15 K, x1 = 0.4073	–	33.43	–
318.15 K, x1 = 0.4983	–	32.08	–
318.15 K, x1 = 0.5934	–	30.99	–
318.15 K, x1 = 0.6979	–	30.23	–
318.15 K, x1 = 0.7994	–	29.83	–
318.15 K, x1 = 0.8978	–	29.14	–
318.15 K, x1 = 1	–	28.78	–
323.15 K, x1 = 0.1	–	41.72	–
323.15 K, x1 = 0.1998	–	37.83	–
323.15 K, x1 = 0.2994	–	34.87	–
323.15 K, x1 = 0.4073	–	32.92	–
323.15 K, x1 = 0.4983	–	31.67	–
323.15 K, x1 = 0.5934	–	30.57	–
323.15 K, x1 = 0.6979	–	29.67	–
323.15 K, x1 = 0.7994	–	29.24	–
323.15 K, x1 = 0.8978	–	28.53	–
323.15 K, x1 = 1	–	28.11	–
325.15 K, x1 = 0.0521	988.47	–	1.5
325.15 K, x1 = 0.0725	989.64	–	2.188
325.15 K, x1 = 0.1039	990.55	–	–
325.15 K, x1 = 0.2091	978.98	–	8.128
325.15 K, x1 = 0.3101	958.91	–	8.263
325.15 K, x1 = 0.4096	940.1	–	–
325.15 K, x1 = 0.5109	924.16	–	4.171
325.15 K, x1 = 0.608	911.05	–	2.876
325.15 K, x1 = 0.7065	900.09	–	2.076
325.15 K, x1 = 0.8069	891.49	–	1.607
325.15 K, x1 = 0.8819	884.6	–	1.324
325.15 K, x1 = 1	876.71	–	1.065
333.15 K, x1 = 0.0521	982.25	–	1.18
333.15 K, x1 = 0.0725	982.66	–	1.651
333.15 K, x1 = 0.1	–	39.98	–
333.15 K, x1 = 0.1039	982.5	–	2.474
333.15 K, x1 = 0.1998	–	36.47	–
333.15 K, x1 = 0.2091	969.64	–	5.188
333.15 K, x1 = 0.2994	–	33.61	–
333.15 K, x1 = 0.3101	949.58	–	5.244
333.15 K, x1 = 0.4073	–	31.68	–
333.15 K, x1 = 0.4096	930.91	–	4.021
333.15 K, x1 = 0.4983	–	30.32	–
333.15 K, x1 = 0.5109	914.98	–	2.894
333.15 K, x1 = 0.5934	–	29.76	–
333.15 K, x1 = 0.608	901.91	–	2.109
333.15 K, x1 = 0.6979	–	28.76	–
333.15 K, x1 = 0.7065	891	–	1.592
333.15 K, x1 = 0.7994	–	27.93	–
333.15 K, x1 = 0.8069	882.42	–	1.277
333.15 K, x1 = 0.8819	875.57	–	1.09
333.15 K, x1 = 0.8978	–	27.7	–
333.15 K, x1 = 1	867.73	27.17	0.9
343.15 K, x1 = 0.0521	975.55	–	0.942
343.15 K, x1 = 0.0725	975.29	–	1.281
343.15 K, x1 = 0.1039	974.18	–	1.827
343.15 K, x1 = 0.2091	960.1	–	3.514
343.15 K, x1 = 0.3101	940.04	–	3.54
343.15 K, x1 = 0.4096	921.51	–	2.81
343.15 K, x1 = 0.5109	905.65	–	2.12
343.15 K, x1 = 0.608	892.65	–	1.607
343.15 K, x1 = 0.7065	881.79	–	1.264
343.15 K, x1 = 0.8069	873.22	–	1.074
343.15 K, x1 = 0.8819	866.45	–	0.906
343.15 K, x1 = 1	858.66	–	0.768

From the NIST ThermoML archive (doi:10.1016/j.jct.2011.06.020)
